Experimental data taken from patent US8802597B2, “Herbicidal pyrimidines” (E I du Pont de Nemours and Company, priority 2003, dated 2014).
Read-outs that look alike come from different tables or passages of the source.

Assays:
Format in all cases: in vivo
[1] = test system: giant foxtail (Setaria faberii); assay: Test C pre/postemergence; settings: Setaria faberi; for pest or weed control at 125 g/ha: 125 g ai/ha; for pest or weed control at 31 g/ha: 31 g ai/ha; for pest or weed control at 62 g/ha: 62 g ai/ha
Outline: (§1)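 Visual injury ratings, 0 (no effect) to 100 (complete control), made 12 to 14 days after treatment by comparison with untreated controls. Greenhouse plants received test chemical in a surfactant-containing non-phytotoxic solvent, either preemergence on planted seeds or postemergence at the 1- to 4-leaf stage.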

[2] = test system: velvetleaf (Abutilon theophrasti); assay: Test C pre/postemergence; settings: Abutilon theophrasti; for pest or weed control at 31 g/ha: 31 g ai/ha; for pest or weed control at 62 g/ha: 62 g ai/ha
Outline: as §1

[3] = test system: lambsquarters (Chenopodium album); assay: Test C pre/postemergence; settings: Chenopodium album; for pest or weed control at 31 g/ha: 31 g ai/ha; for pest or weed control at 62 g/ha: 62 g ai/ha; for pest or weed control at 125 g/ha: 125 g ai/ha
Outline: as §1

[4] = test system: goosegrass (Eleusine indica); assay: Test C pre/postemergence; settings: Eleusine indica; for pest or weed control at 31 g/ha: 31 g ai/ha; for pest or weed control at 62 g/ha: 62 g ai/ha; for pest or weed control at 125 g/ha: 125 g ai/ha
Outline: as §1

[5] = test system: chickweed (Stellaria media); assay: Test C postemergence; settings: Stellaria media, post-emergence
Outline: as §1

[6] = test system: barnyardgrass (Echinochloa crus-galli); assay: Test A pre/postemergence; settings: Echinochloa crus-galli, 240 h, read-out: Plant response rating, Barnyardgrass; for pest or weed control at 125 g/ha: 125 g ai/ha; for pest or weed control at 500 g/ha: 500 g ai/ha
Outline: (§2)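 Seeds sown in loam–sand blend received a preemergence directed soil spray of test chemical in non-phytotoxic solvent with surfactant; same-formulation postemergence spray given concurrently to plants 2–10 cm tall at 1- to 2-leaf stage. Greenhouse ~ten days, then visual injury rating versus untreated controls, 0 (no effect) to 100 (complete control).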

[7] = test system: redroot pigweed (Amaranthus retroflexus); assay: Test A pre/postemergence; settings: Amaranthus retroflexus, 240 h, read-out: Plant response rating, Pigweed; for pest or weed control at 125 g/ha: 125 g ai/ha; for pest or weed control at 500 g/ha: 500 g ai/ha
Outline: as §2

[8] = test system: velvetleaf (Abutilon theophrasti); assay: Test A pre/postemergence; settings: Abutilon theophrasti, 240 h, read-out: Plant response rating, Velvetleaf; for pest or weed control at 125 g/ha: 125 g ai/ha; for pest or weed control at 500 g/ha: 500 g ai/ha
Outline: as §2

[9] = test system: giant foxtail (Setaria faberi); assay: Test A pre/postemergence; settings: Setaria faberi, 240 h, read-out: Plant response rating, Foxtail, Giant; for pest or weed control at 125 g/ha: 125 g ai/ha; for pest or weed control at 500 g/ha: 500 g ai/ha
Outline: as §2

[10] = test system: crabgrass (Digitaria sanguinalis); assay: Test A pre/postemergence; settings: Digitaria sanguinalis, 240 h, read-out: Plant response rating, Crabgrass; for pest or weed control at 125 g/ha: 125 g ai/ha; for pest or weed control at 500 g/ha: 500 g ai/ha
Outline: as §2

[11] = test system: morningglory (Ipomoea spp.); assay: Test A pre/postemergence; settings: Ipomoea, 240 h, read-out: Plant response rating, Morningglory; for pest or weed control at 125 g/ha: 125 g ai/ha; for pest or weed control at 500 g/ha: 500 g ai/ha
Outline: as §2

[12] = post-emergence, Postemergence, read-out: Plant response rating (scale of 0 to 100), Foxtail, Giant
[13] = pre-emergence, Preemergence, scale 0 to 100, 0 no effect, 100 complete control, read-out: Plant response rating, Foxtail, Giant
[14] = post-emergence, Postemergence, read-out: Plant response rating (scale of 0 to 100), Velvetleaf
[15] = pre-emergence, Preemergence, scale 0 to 100, 0 no effect, 100 complete control, read-out: Plant response rating, Velvetleaf
[16] = post-emergence, Postemergence, read-out: Plant response rating (scale of 0 to 100), Lambsquarters
[17] = pre-emergence, Preemergence, scale 0 to 100, 0 no effect, 100 complete control, read-out: Plant response rating, Lambsquarters
[18] = post-emergence, Postemergence, read-out: Plant response rating (scale of 0 to 100), Goosegrass
[19] = pre-emergence, Preemergence, scale 0 to 100, 0 no effect, 100 complete control, read-out: Plant response rating, Goosegrass
[20] = post-emergence, Postemergence, 0 to 100 scale (0 no effect, 100 complete control)
[21] = pre-emergence, Preemergence, 0 to 100 scale where 0 is no effect and 100 is complete control, approximately ten days

Nc1nc(C2CC2)nc(C(=O)OCc2ccccc2)c1Cl [Compound 78, phenylmethyl 6-amino-5-chloro-2-cyclopropyl-4-pyrimidinecarboxylate]
pest or weed control at 125 g/ha ([1]; post-emergence, Postemergence, scale 0 to 100 (0 no effect, 100 complete control), read-out: Foxtail, Giant plant response rating): 65%
pest or weed control at 31 g/ha [1, 12]: 0%
pest or weed control at 62 g/ha [1, 12]: 30%
pest or weed control at 250 g/ha ([1]; post-emergence, Postemergence, 250 g ai/ha, scale 0 to 100, read-out: Plant response rating, Foxtail, Giant): 70%
pest or weed control at 16 g/ha ([1]; pre-emergence, Preemergence, 16 g ai/ha, scale 0 to 100, 0 no effect, 100 complete control, read-out: Plant response rating, Foxtail, Giant): 0%
pest or weed control at 31 g/ha [1, 13]: 0%
pest or weed control at 62 g/ha [1, 13]: 0%
pest or weed control at 125 g/ha ([1]; pre-emergence, Preemergence, scale 0 to 100, read-out: Plant response rating, Foxtail, Giant): 0%
pest or weed control at 31 g/ha [2, 14]: 50%
pest or weed control at 62 g/ha [2, 14]: 80%
pest or weed control at 125 g/ha ([2]; post-emergence, Postemergence, 125 g ai/ha, scale 0 to 100 (0 no effect, 100 complete control), read-out: Velvetleaf plant response rating): 95%
pest or weed control at 250 g/ha ([2]; post-emergence, Postemergence, 250 g ai/ha, scale 0 to 100, read-out: Plant response rating, Velvetleaf): 100%
pest or weed control at 16 g/ha ([2]; pre-emergence, Preemergence, 16 g ai/ha, scale 0 to 100, 0 no effect, 100 complete control, read-out: Plant response rating, Velvetleaf): 10%
pest or weed control at 31 g/ha [2, 15]: 55%
pest or weed control at 62 g/ha [2, 15]: 70%
pest or weed control at 31 g/ha [3, 16]: 90%
pest or weed control at 62 g/ha [3, 16]: 95%
pest or weed control at 125 g/ha ([3]; post-emergence, Postemergence, scale 0 to 100 (0 no effect, 100 complete control), read-out: Lambsquarters plant response rating): 95%
pest or weed control at 250 g/ha ([3]; post-emergence, Postemergence, 250 g ai/ha, scale 0 to 100, read-out: Plant response rating, Lambsquarters): 100%
pest or weed control at 16 g/ha ([3]; pre-emergence, Preemergence, 16 g ai/ha, scale 0 to 100, 0 no effect, 100 complete control, read-out: Plant response rating, Lambsquarters): 0%
pest or weed control at 31 g/ha [3, 17]: 70%
pest or weed control at 62 g/ha [3, 17]: 80%
pest or weed control at 125 g/ha ([3]; pre-emergence, Preemergence, scale 0 to 100, read-out: Plant response rating, Lambsquarters): 80%
pest or weed control at 31 g/ha [4, 18]: 0%
pest or weed control at 62 g/ha [4, 18]: 0%
pest or weed control at 125 g/ha ([4]; post-emergence, Postemergence, scale 0 to 100 (0 no effect, 100 complete control), read-out: Goosegrass plant response rating): 40%
pest or weed control at 250 g/ha ([4]; post-emergence, Postemergence, 250 g ai/ha, scale 0 to 100, read-out: Plant response rating, Goosegrass): 50%
pest or weed control at 16 g/ha ([4]; pre-emergence, Preemergence, 16 g ai/ha, scale 0 to 100, 0 no effect, 100 complete control, read-out: Plant response rating, Goosegrass): 0%
pest or weed control at 31 g/ha [4, 19]: 0%
pest or weed control at 62 g/ha [4, 19]: 0%
pest or weed control at 125 g/ha ([4]; pre-emergence, Preemergence, scale 0 to 100, read-out: Plant response rating, Goosegrass): 0%
pest or weed control at 31 g/ha ([5]; 31 g ai/ha, read-out: Plant response rating (scale of 0 to 100), Chickweed): 0%
pest or weed control at 62 g/ha ([5]; 62 g ai/ha, read-out: Plant response rating (scale of 0 to 100), Chickweed): 0%
pest or weed control at 250 g/ha ([5]; 250 g ai/ha, scale 0 to 100, read-out: Plant response rating, Chickweed): 70%
pest or weed control at 125 g/ha [6, 20]: 80%
pest or weed control at 500 g/ha [6, 20]: 90%
pest or weed control at 125 g/ha [6, 21]: 45%
pest or weed control at 500 g/ha [6, 21]: 75%
pest or weed control at 125 g/ha [7, 20]: 85%
pest or weed control at 500 g/ha [7, 20]: 95%
pest or weed control at 125 g/ha [7, 21]: 75%
pest or weed control at 500 g/ha [7, 21]: 90%
pest or weed control at 125 g/ha [8, 20]: 75%
pest or weed control at 500 g/ha [8, 20]: 90%
pest or weed control at 125 g/ha [8, 21]: 80%
pest or weed control at 500 g/ha [8, 21]: 85%
pest or weed control at 125 g/ha [9, 20]: 70%
pest or weed control at 500 g/ha [9, 20]: 80%
pest or weed control at 125 g/ha [9, 21]: 10%
pest or weed control at 500 g/ha [9, 21]: 65%
pest or weed control at 125 g/ha [10, 20]: 70%
pest or weed control at 500 g/ha [10, 20]: 80%
pest or weed control at 125 g/ha [10, 21]: 55%
pest or weed control at 500 g/ha [10, 21]: 70%
pest or weed control at 125 g/ha [11, 20]: 80%
pest or weed control at 500 g/ha [11, 20]: 90%
pest or weed control at 125 g/ha [11, 21]: 90%
pest or weed control at 500 g/ha [11, 21]: 100%
